Data taken from patent publication US11267824B2, “Inhibitors of indoleamine 2,3-dioxygenase and/or tryptophan 2,3-dioxygenase” (IDORSIA PHARMACEUTICALS LTD, priority 2017, dated 2022).

How the values were obtained:
[1] = molecular target: Recombinant full-length human IDO1 (Homo sapiens (Human), UniProt P14902); assay: IDO1 enzymatic assay (IDO inhibitory activity); format: biochemical; settings: 2 nM enzyme, 5 μM L-tryptophan, pH6.5, 30 min pre-incubation, NFK quantified by LCMS; mean values if measured multiple times; read-out: hIDO activity (IC50 in nM)
Method: 1) Testing Compounds for IDO Inhibitory Activity in an IDO1 Enzymatic Assay:
Recombinant full-length human IDO1 with a N-terminal hexahistidine tag expressed in E. coli and purified to homogeneity is incubated at a final concentration of 2 nM in assay buffer consisting of 37.5 mM phosphate buffer at pH6.5 supplemented with 10 mM sodium L-ascorbate, 0.45 μM methylene blue, 50 U/ml catalase, 0.01% BSA, and 0.01% Tween 20 (protocol modified from Seegers et al, JBS 2014). Example compounds are serially diluted in DMSO, further diluted in phosphate buffer, and added to the enzyme at final concentrations ranging from 10 μM to 0.5 nM. The final DMSO concentration is 0.6%. Following a pre-incubation of 30 minutes at RT, the reaction is started by the addition of L-tryptophan at a final concentration of 5 μM in assay buffer. After 30 minutes of incubation at RT, 3 μL of the reaction mixture are transferred to a 384 deep well plate containing 25 μL of deionized water. 100 μl of 200 nM L-Tryptophan-(indole-d5) in cold 100% methanol are added followed by a 10 minutes centrifugation at 4,000 rpm at 4° C. An additional 75 μL of deionized water are then added and followed by a 10 minutes centrifugation at 4,000 rpm at 4° C. The product of the reaction N′-Formylkynurenine (NFK) is quantified by LCMS and normalized to the L-Tryptophan-(indole-d5) signal. Samples with 0.6% DMSO (0% effect) and a TDO/IDO inhibitor (100% effect) are used as control samples to set the parameters for the non-linear regression necessary for the determination of the half-maximal inhibitory concentration (IC50) for each compound. For each compound concentration the percentage of activity compared to 0% and 100% effect is calculated as average ±STDEV (each concentration measured in duplicate). IC50 values and curves are generated with XLfit software (IDBS) using Dose-Response One Site model 203 (four parameter logistic curve model). When compounds are measured multiple times, mean values are given.

[2] = molecular target: Recombinant human TDO comprising amino acids 19-407 (Homo sapiens (Human), UniProt P48775); assay: TDO2 enzymatic assay (TDO inhibitory activity); format: biochemical; settings: 15 nM enzyme, 200 μM L-tryptophan, pH7, 30 min pre-incubation, NFK quantified by LCMS; mean values if measured multiple times; read-out: hTDO activity (IC50 in nM)
Method: 2) Testing Compounds for TDO Inhibitory Activity in a TDO2 Enzymatic Assay:
Recombinant human TDO comprising amino acids 19-407 with a N-terminal hexahistidine tag expressed in E. coli and purified to homogeneity is incubated at a final concentration of 15 nM in assay buffer consisting of 75 mM phosphate buffer at pH7 supplemented with 100 μM ascorbic acid, 50 U/ml Catalase, 0.01% BSA, and 0.01% Tween 20 (protocol modified from Seegers et al, JBS 2014). Example compounds are serially diluted in DMSO, further diluted in phosphate buffer, and added to the reaction mixture at final concentrations ranging from 10 μM to 0.5 nM. The final DMSO concentration is 0.6%. Following a pre-incubation of 30 minutes at RT, the reaction is started by the addition of L-tryptophan at a final concentration of 200 μM in assay buffer. After 30 minutes of incubation at RT, 3 μL of the reaction mixture are transferred to a 384 deep well plate containing 25 μL of deionized water. 100 μl of 200 nM L-Tryptophan-(indole-d5) in cold 100% methanol are added followed by a 10 minutes centrifugation at 4,000 rpm at 4° C. An additional 75 μL of deionized water are then added and followed by a 10 minutes centrifugation at 4,000 rpm at 4° C. The product of the reaction N′-Formylkynurenine (NFK) is quantified by LCMS and normalized to the L-Tryptophan-(indole-d5) signal. Samples with 0.6% DMSO (0% effect) and a TDO/IDO inhibitor (100% effect) are used as control samples to set the parameters for the non-linear regression necessary for the determination of the half-maximal inhibitory concentration (IC50) for each compound. For each compound concentration the percentage of activity compared to 0% and 100% effect is calculated as average±STDEV (each concentration measured in duplicate). IC50 values and curves are generated with XLfit software (IDBS) using Dose-Response One Site model 203 (four parameter logistic curve model). When compounds are measured multiple times, mean values are given.

Sequence of Recombinant full-length human IDO1 (P14902 whole entry): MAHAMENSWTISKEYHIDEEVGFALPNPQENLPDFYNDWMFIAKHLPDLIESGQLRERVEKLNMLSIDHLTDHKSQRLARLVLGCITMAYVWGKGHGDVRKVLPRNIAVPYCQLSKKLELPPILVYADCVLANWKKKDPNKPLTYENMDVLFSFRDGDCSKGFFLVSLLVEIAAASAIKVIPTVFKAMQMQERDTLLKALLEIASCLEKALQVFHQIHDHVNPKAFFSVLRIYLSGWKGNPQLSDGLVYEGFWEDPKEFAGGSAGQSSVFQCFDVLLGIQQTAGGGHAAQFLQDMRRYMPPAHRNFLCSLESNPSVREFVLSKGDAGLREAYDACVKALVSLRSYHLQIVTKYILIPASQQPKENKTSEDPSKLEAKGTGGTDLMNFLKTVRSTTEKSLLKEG
Sequence of Recombinant human TDO comprising amino acids 19-407 (P48775 19-406 limits assumed): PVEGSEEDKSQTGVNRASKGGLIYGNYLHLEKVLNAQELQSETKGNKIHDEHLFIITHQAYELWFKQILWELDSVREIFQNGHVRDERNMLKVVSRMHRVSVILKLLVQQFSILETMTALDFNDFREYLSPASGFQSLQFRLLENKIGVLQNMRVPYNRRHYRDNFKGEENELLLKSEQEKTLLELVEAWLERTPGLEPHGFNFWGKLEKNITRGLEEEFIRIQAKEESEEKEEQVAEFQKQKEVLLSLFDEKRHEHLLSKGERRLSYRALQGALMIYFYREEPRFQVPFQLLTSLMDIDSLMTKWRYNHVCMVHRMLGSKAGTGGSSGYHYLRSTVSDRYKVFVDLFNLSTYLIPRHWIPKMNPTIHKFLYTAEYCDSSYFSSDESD

IC50 [1] [nM] | IC50 [2] [nM] | SMILES
5.32 | 20 | CCc1sc2cncn2c1[C@@H](O)C1CCCCC1 [Example 96a, (S)-Cyclohexyl-(2-ethyl-imidazo[5,1-b]thiazol-3-yl)-methanol]
94.2 | 324 | OC(c1c(C2CCC2)sc2cncn12)C1CCCCC1 (racemic) [Example 7, rac-(2-Cyclobutylimidazo[5,1-b]thiazol-3-yl)(cyclohexyl)methanol]
72.1 | 746 | OC(c1c(C2CC2)sc2cncn12)C1CCC2(CCCC2)CC1 (racemic) [Example 70, rac-(2-Cyclopropyl-imidazo[5,1-b]thiazol-3-yl)-spiro[4.5]dec-8-yl-methanol]
123 | 2710 | Cc1sc2cncn2c1C(O)[C@H]1C[C@@H]1c1ccccc1 (single isomer, unassigned) [Example 168, rac-(R*)-(2-Methyl-imidazo[5,1-b]thiazol-3-yl)-((1S*,2S*)-2-phenyl-cyclopropyl)-methanol]
10.3 | 268 | O[C@@H](CC1CCCCC1)c1c(C2CC2)sc2cncn12 [Example 2a, (S)-2-Cyclohexyl-1-(2-cyclopropylimidazo[5,1-b]thiazol-3-yl)ethan-1-ol]
96.1 | > 10200 | OC(c1cn(C2CCCC2)nn1)c1c(C2CC2)sc2cncn12 (racemic) [Example 195, rac-(1-Cyclopentyl-1H-[1,2,3]triazol-4-yl)-(2-cyclopropyl-imidazo[5,1-b]thiazol-3-yl)-methanol]
18.5 | 2260 | OC(c1c([C@@H]2C[C@H]2F)sc2cncn12)C1CCCCC1 (relative stereo) [Example 187, Cyclohexyl-[2-(trans-2-fluoro-cyclopropyl)-imidazo[5,1-b]thiazol-3-yl]-methanol]
33.2 | 579 | CC(C)C1(C)CCC(C(O)c2c(C3CC3)sc3cncn23)C1 (centres unmarked) [Example 136, (2-Cyclopropyl-imidazo[5,1-b]thiazol-3-yl)-(3-isopropyl-3-methyl-cyclopentyl)-methanol]
87.3 | 822 | CC(C1CCCCC1)C(O)c1c(C2CC2)sc2cncn12 (centres unmarked) [Example 82, 2-Cyclohexyl-1-(2-cyclopropyl-imidazo[5,1-b]thiazol-3-yl)-propan-1-ol]
167 | 1890 | Cc1sc2cncn2c1C(O)CC1CCC(c2ccccc2)C1 (centres unmarked) [Example 107, 1-(2-Methyl-imidazo[5,1-b]thiazol-3-yl)-2-(3-phenyl-cyclopentyl)-ethanol]
101 | 2430 | OC(CC1CCCC1)c1c(C(F)(F)F)sc2cncn12 (racemic) [Example 111, rac-2-Cyclopentyl-1-(2-trifluoromethyl-imidazo[5,1-b]thiazol-3-yl)-ethanol]
183 | > 10200 | OC(c1cn(C2CCC2)nn1)c1c(C2CC2)sc2cncn12 (racemic) [Example 196, rac-(1-Cyclobutyl-1H-[1,2,3]triazol-4-yl)-(2-cyclopropyl-imidazo[5,1-b]thiazol-3-yl)-methanol]
313 | 386 | OC(CC1CCCCC1)c1c(-c2ccsc2)sc2cncn12 (racemic) [Example 95, rac-2-Cyclohexyl-1-(2-thiophen-3-yl-imidazo[5,1-b]thiazol-3-yl)-ethanol]
122 | 256 | OC(CC1CCCCC1)c1c(C2CCC2)sc2cncn12 (racemic) [Example 8, rac-1-(2-Cyclobutylimidazo[5,1-b]thiazol-3-yl)-2-cyclohexylethan-1-ol]
11.4 | 473 | OC(c1c(C2CC2)sc2cncn12)C1CCCC1 (racemic) [Example 46, rac-Cyclopentyl-(2-cyclopropyl-imidazo[5,1-b]thiazol-3-yl)-methanol]
35.6 | 658 | O[C@@H](CC1CCCCC1)c1c(Cl)sc2cncn12 [Example 16a, (S)-1-(2-Chloro-imidazo[5,1-b]thiazol-3-yl)-2-cyclohexyl-ethanol]
7.04 | 66.8 | CCc1sc2cncn2c1C(O)C1(C)CCCCC1 (racemic) [Example 175, rac-(2-Ethyl-imidazo[5,1-b]thiazol-3-yl)-(1-methyl-cyclohexyl)-methanol]
30 | 19.9 | Cc1sc2cncn2c1C(O)C1(C)CCCC1 (racemic) [Example 140, rac-(1-Methyl-cyclopentyl)-(2-methyl-imidazo[5,1-b]thiazol-3-yl)-methanol]
766 | 854 | Cc1cc(-c2sc3cncn3c2C(O)C2CCCCC2)cs1 (racemic) [Example 153, rac-Cyclohexyl-[2-(5-methyl-thiophen-3-yl)-imidazo[5,1-b]thiazol-3-yl]-methanol]
133 | 1080 | OC(c1c(C2CC2)sc2cncn12)C1CCC2CCCCC2C1 (centres unmarked) [Example 90, (2-Cyclopropyl-imidazo[5,1-b]thiazol-3-yl)-(decahydro-naphthalen-2-yl)-methanol]
190 | 164 | O[C@@H](CC1CCCCC1)c1c(C2CCCC2)sc2cncn12 [Example 10a, (S)-2-Cyclohexyl-1-(2-cyclopentylimidazo[5,1-b]thiazol-3-yl)ethan-1-ol]
70.1 | 1780 | OC(c1c(C2CC2)sc2cncn12)C1CCC(C2CCC2)CC1 (racemic) [Example 103, rac-(4-Cyclobutyl-cyclohexyl)-(2-cyclopropyl-imidazo[5,1-b]thiazol-3-yl)-methanol]
485 | 1790 | OC(CC1CCC2CCCCC2C1)c1c(C2CC2)sc2cncn12 (centres unmarked) [Example 101, 1-(2-Cyclopropyl-imidazo[5,1-b]thiazol-3-yl)-2-(decahydro-naphthalen-2-yl)-ethanol]
687 | 3230 | CCCC1CCC(CC(O)c2c(C3CC3)sc3cncn23)CC1 (racemic) [Example 150, rac-1-(2-Cyclopropyl-imidazo[5,1-b]thiazol-3-yl)-2-(4-propyl-cyclohexy-etethanol]
115 | 1760 | OC(c1c(C2(F)CC2)sc2cncn12)C1CCCCC1 (racemic) [Example 184, rac-Cyclohexyl-[2-(1-fluoro-cyclopropyl)-imidazo[5,1-b]thiazol-3-yl]-methanol]
72.3 | 129 | O[C@@H](CC1CCCCC1)c1c(C2CCC2)sc2cncn12 [Example 8a, (S)-1-(2-Cyclobutylimidazo[5,1-b]thiazol-3-yl)-2-cyclohexylethan-1-ol]
102 | 2640 | OC1CCC(C(O)c2c(C3CC3)sc3cncn23)CC1 (racemic) [Example 151, rac-4-[(2-Cyclopropyl-imidazo[5,1-b]thiazol-3-yl)-hydroxy-methyl]-cyclohexanol]
139 | 3770 | OC(CC1CCCC1c1ccccc1)c1c(C2CC2)sc2cncn12 (centres unmarked) [Example 135, 1-(2-Cyclopropyl-imidazo[5,1-b]thiazol-3-yl)-2-(2-phenyl-cyclopentyl)-ethanol]
